A short description of data set [1]: in vitro. The following applies: human, blood.
Data set [2] in a line: in vitro. The following applies: human, liver.
Description: Half life in human liver at 37 degree C

As a reminder, the half-life is how long it takes for the measured level to halve. High values mean slow decline, low ones rapid decline. In the case of `COc1cc(C(C)C)c2c(c1)S(=O)(=O)N(COc1cc(C)oc(=O)c1)C2=O`, the half-life in data set [1] is < 0.25 h.
Take `COc1cc(C(C)C)c2c(c1)S(=O)(=O)N(COc1nc3ccccn3c(=O)c1C)C2=O`: the half-life in data set [2] came to 1.72 h; in data set [1], 5.83 h.
The corresponding values for `COc1cc(C(C)C)c2c(c1)S(=O)(=O)N(COC1=C(Cc3ccccc3)C(=O)OC1C)C2=O` (configuration not stated) are 0.583 h and 2.82 h.
As for `COc1cc(C(C)C)c2c(c1)S(=O)(=O)N(COC1=C(Cc3ccccc3)C(=O)OC1)C2=O`, the results for the half-life in data set [2] and in data set [1] were 1.25 h and 0.967 h, respectively.
As for `CC(C)c1cccc2c1C(=O)N(COc1nc3ccccn3c(=O)c1Cl)S2(=O)=O`, in data set [1], the half-life is 0.833 h.
The same measure, in the same setting: the result for `O=C1c2ccccc2S(=O)(=O)N1COc1nc2ccccn2c(=O)c1Cl` reads < 0.25 h; that for `COc1cc(C(C)C)c2c(c1)S(=O)(=O)N(COc1cc(=O)n3c(n1)CCCC3)C2=O`, 0.85 h; that for `COc1cc(C(C)C)c2c(c1)S(=O)(=O)N(COc1cc(C)oc(=O)c1Cl)C2=O`, < 0.25 h.
`COc1cc(C(C)C)c2c(c1)S(=O)(=O)N(COc1cc(=O)oc3ccccc13)C2=O` came in with a half-life in data set [1] of 6 h.
The compound `COc1cc(C(C)C)c2c(c1)S(=O)(=O)N(COC1=C(C)C(=O)CCC1)C2=O` came in with a half-life in data set [1] of 0.267 h.
Consider `COc1cc(C(C)C)c2c(c1)S(=O)(=O)N(COc1nc3ccccn3c(=O)c1Cl)C2=O`, for which, in data set [1], the half-life stood at 2.67 h.
For `COc1cc(C(C)C)c2c(c1)S(=O)(=O)N(COC1=CC(=O)c3ccccc31)C2=O`, the half-life in data set [1] is < 0.25 h.
For the compound `COc1cc(C(C)C)c2c(c1)S(=O)(=O)N(COC(=O)c1c(Cl)cccc1Cl)C2=O`, the half-life in data set [2] worked out at 1.22 h; in data set [1] it was 2.33 h.
Consider `COc1cc(C(C)C)c2c(c1)S(=O)(=O)N(COc1cc(=O)n3ccccc3n1)C2=O`, for which the half-life in data set [2] was determined as 1.7 h; in data set [1] it was 1.78 h.
As for `COc1cc(C(C)C)c2c(c1)S(=O)(=O)N(COC1=C(Cl)C(=O)OC1)C2=O`, in data set [1], the half-life is < 0.25 h.
`COc1cc(C(C)C)c2c(c1)S(=O)(=O)N(COC1=C(C)C(=O)CC1)C2=O`: the half-life in data set [1] is < 0.25 h.
Turning to `COc1cc(C(C)C)c2c(c1)S(=O)(=O)N(COC1=CC(=O)N(Cc3ccccc3)C1)C2=O`, the half-life in data set [1] worked out at 0.233 h.
`COc1cc(C(C)C)c2c(c1)S(=O)(=O)N(COc1cc(C)oc(=O)c1C(=O)c1ccccc1)C2=O`: the half-life in data set [1] is < 0.25 h.
For the compound `COc1cc(C(C)C)c2c(c1)S(=O)(=O)N(COC1=CC(=O)OC1)C2=O`, the half-life in data set [1] is < 0.25 h.
The same measure, in the same setting: in the case of `COc1cc(C(C)C)c2c(c1)S(=O)(=O)N(COC1=C(c3ccccc3)C(=O)OC1)C2=O` it was 0.483 h.
In data set [1], `COc1cc(C(C)C)c2c(c1)S(=O)(=O)N(COc1nc3ccccn3c(=O)c1Br)C2=O` gave a half-life of 2.07 h.
Regarding `COc1cc(C(C)C)c2c(c1)S(=O)(=O)N(COC1=CC(=O)OC1C)C2=O` (configuration not stated), the half-life in data set [1] was < 0.25 h.
In turn, `COc1cc(C(C)C)c2c(c1)S(=O)(=O)N(COC1=C(Cc3ccccc3)C(=O)CC1)C2=O` displayed a half-life in data set [1] of 0.917 h.
On the same count and under the same terms, the result for `COc1cc(C(C)C)c2c(c1)S(=O)(=O)N(COC1=CC(=O)C1)C2=O` reads < 0.25 h; that for `CCC(C)c1cccc2c1C(=O)N(COc1nc3ccccn3c(=O)c1Cl)S2(=O)=O` (configuration not stated), 3.83 h.
Regarding `COc1cc(C(C)C)c2c(c1)S(=O)(=O)N(COC1=C(c3ccccc3)C(=O)OC1C)C2=O` (configuration not stated), the figures for the half-life in data set [2] and in data set [1] were 1.37 h and 2.57 h, respectively.

The record behind these values is ChEMBL document CHEMBL1128195, “A novel class of cyclic beta-dicarbonyl leaving groups and their use in the design of benzisothiazolone human leukocyte elastase inhibitors” (J Med Chem, 1995).
